This is an account of results in patent US20190298664A1, “METHOD AND KIT FOR MYOCARDIAL REPERFUSION, AND METHOD FOR ATTENUATING OR REDUCING MYOCARDIAL REPERFUSION INJURY” (Academia Sinica, priority 2018, published 2019).

Common to all, as to type: in vivo, mouse
Test [1] concerns I/R mice. Description: Myocardial infarct size (Evans blue/TTC staining) in I/R mice. As to conditions: 2 mg/kg IP. The method, then:
(§1) We anesthetized the mouse with 5% isoflurane mixed with room air until loss of sensation of pain and then maintained the mouse in anesthesia status with 2% isoflurane mixed with room air through the whole procedure. The mouse's body temperature was maintained at 37° C. by a heating pad. After the mouse was intubated, we provided artificial ventilation to the mouse with a small animal ventilator. Then the chest cavity was opened at the second intercostal space and homemade chest retractors were utilized to widen the incision. We pulled the pericardium apart carefully and exposed the left anterior descending artery (LAD). A 7-0 silk was put underneath the LAD at the position of the tip of the left auricle, a 6 mm length of PE-10 tube was put on the surface of the LAD, and then a double knot was made to occlude the blood flow of LAD. The success of ligation was confirmed by paling the anterior wall of the LV. For the reperfusion group, the LAD knot would be untied for the purpose of reperfusion after 1 hour of ischemia. For the sham operation group, all procedures were the same except for the knot that occluded the LAD flow. After the successful procedure, we left the silk in situ, closed the chest cavity and weaned the animal from the ventilator.
At the end of experiment, the animal was sacrificed. We opened the chest cavity and exposed the heart and aorta. The heart was perfused with 0.9% saline from the apex until the coronary vessels and myocardium turning into pale color. After saline perfusion, the LAD knot was tied again. 1 mL of 1% Evans blue dye was delivered into the heart through the aortic root by retrograde injection. The dye uniformly perfused the whole heart except in the area of the heart previously perfused by the occluded coronary artery (area at risk, AAR). Then the heart was quickly removed, washed in ice-cold 0.9% saline followed by frozen at −20° C. for 20 minutes, then cut into slices of 1 mm with heart matrix. […] The areas stained with Evans blue negative but TTC-positive (AAR), and TTC-negative area (infarct area) were all measured digitally by ImageJ software. […]

The subject of test [2] is myocardial protein tyrosine phosphorylation. Description: Immunoblotting of heart extracts of I/R mice (anti-pTyr, p-Paxillin, p-p130cas, p-ErbB-2). As to conditions: 2 mg/kg IP ten min before reperfusion; four hours post-I/R. The method, then:
as §1
Hearts from mice received different treatment were gently homogenized in ice-cold RIPA buffer [250 mM Tris-HCl pH 7.4, 750 mM NaCl, detergent mix (5% NP-40, 2.5% Na-deoxycholate and 0.5% SDS), and 1× protease inhibitor cocktail (EDTA free)] containing phosphatase inhibitors (2 mM Na3VO4, 10 mM NaF, and 10 mM Na2P2O7). The homogenates were centrifuged at 16,100×g at 4° C. for 10 minutes to remove the debris. Protein concentrations were determined by Bradford protein assay. Equal amounts of protein extract from those mice were separated by SDS-PAGE on an 8% or 10% polyacrylamide gel and then transferred to PVDF membrane. Membranes were incubated with indicated primary antibody at 4° C. overnight followed by incubated with secondary antibodies for 1 hour at room temperature. The protein abundance was detected by the signal intensity of each specific band.
A general note: A western blot detects proteins with antibodies after separation by electrophoresis.

Test [3] concerns I/R mice. As to the kind of experiment: Echocardiography (ejection fraction) in I/R mice. As to conditions: 2 mg/kg IP. The protocol: as §1, with “confirmed by […] anterior wall” for “confirmed by paling the anterior wall”, “the ventilator. At 1 day and 1 week post the indicated I/R episode, the mice were received echocardiography for evaluating the cardiac function. […]” for “the ventilator.”

SMILES strings stand for the structures.

Consider `CC(=O)OC[C@H]1O[C@@H]([S-])[C@H](OC(C)=O)[C@@H](OC(C)=O)[C@@H]1OC(C)=O.CCP(CC)CC.[Au+]` [Auranofin, auranofin], for which, in the test with I/R mice [1] (four hours after reperfusion, versus vehicle-only controls), the Infarct size result was “significantly decreased”. In addition, the Infarct size entry with I/R mice [1] (one day after reperfusion) is “smaller”. In test [2], the “Decreased protein tyrosine phosphorylation in the I/R heart (anti-pTyr)” value is “reversed”; the “I/R-induced decrease of pTyr signaling in Paxillin and p130Cas” value is given as “restored”; the “I/R-suppressed phosphorylation of Tyr1248 in ErbB-2” value was “restored”. In addition, in the test on I/R mice [3] (one day post-MI), the Cardiac ejection fraction result is “significant improvement”. Moreover, the “Restoration of cardiac performance judged by echocardiography” value in the test on I/R mice [3] (one week post-MI) is reported as “sustained up to one week”.
